Data taken from patent US20140349944A1, “CHAPERONE-BASED INTEGRIN INHIBITORS FOR THE TREATMENT OF CANCER AND INFLAMMATORY DISEASES” (priority 2013, published 2014).

Tested on: gp96 and αL-HA in RAW264.7 cells
Assay: Tunicamycin treatment of RAW264.7 cells, IP and immunoblot
Type: cell-based
Conditions: 5 μg/ml Tunicamycin

Tunicamycin
binding of immature ER αL-HA to gp96 (12 hours (FIG. 1E)): reduction in binding to gp96
dimerization of matured cell surface αL-HA with β2-myc (12 hours (FIG. 1E)): no change
gp96 expression (12 hours, via unfolded protein response): upregulation
